# Reference: patent US20050220779A1, “Integrin linked kinase modulation of macrophage activation” (priority 2001, published 2005)
# Key:
# [1] = tested on: C57BL/6 cells (primary peritoneal macrophages); assay: Cell survival by crystal violet staining, C57BL/6 cells; type: cell-based; details: 50 μM, 24 h, DMSO-treated = 100%
# Protocol: Treatment of primary macrophages and RAW 264.7 cells. […] Following 3 h incubation, at 37 C, 5% CO2 (macrophages were allowed to attach) cells were stimulated with LPS (0.5 μg/ml) and IFN-γ (100 U/ml) in the absence or presence of various concentrations of ILK inhibitors (all treatments were replicated six times). Cells were incubated for an additional 24 h, and cell free culture supernatants from each well were collected for NO and cytokine determination. The remaining cells were stained with crystal violet to determine effect of the inhibitors on cell survival.
# Effect of ILK Inhibitors on suppression of NO production and cell survival. Twenty-four hours following treatment with the ILK inhibitors, aliquots from the cell-free supernatants were assayed for NO and IL-6 release. Surviving cells were stained and fixed (crystal violet 0.05% in 20% ethanol), to determine if the decrease in NO production was related to a decrease in cell number due to toxicity of the compounds.
# COX-2 = COX-2 protein expression in LPS-IFN-γ stimulated macrophages (western blot); type: cell-based, murine; details: LPS-IFN-γ stimulated macrophages, western blot
# Protocol: Western blot analysis. After incubation with the indicated stimuli in the presence of ILK inhibitors, cells (duplicate samples, 2×10^6cell/6-wells plate) were washed in PBS and lysed on ice in 60 μl of lysis buffer. The protein content of each sample was determined using the Bradford protein assay kit (Bio-Rad, Richmond, Calif.). Absorbance was measured at 750 nm with a Beckman DU530 spectrophotometer (Palo Alto, Calif.). Proteins were mixed with 45×SDS sample buffer. Following separation of proteins by SDS-PAGE, using 8% bis-acrylamide in the separation gel, the proteins were transferred from the gels onto PVDF membranes using a MiniProtean III Cell (Bio-Rad), at 100 V for 1.5 h. Equal amounts of protein (5 μg) were loaded onto SDS-PAGE gels and examined by Western blot analysis with anti-Actin, anti-iNOS, anti-COX-2 murine monoclonal antibodies according to the manufacturers specifications (Transduction Laboratories). […] The Multi-Analyst/PC system from Biorad is being used to quantitate the bands of the expressed protein on the film. […] White light is chosen as the selected light source, thus the signal strength is measured in OD (optic density) units. […]
# Effects of ILK inhibitors on the LPS-IFN-γ-induced iNOS and COX-2 expression NO production requires that iNOS be enzymatically activity, therefore experiments were performed to examine whether the inhibitory effect of ILK inhibitors was mediated by […] iNOS protein synthesis or effects on the activity of existing enzyme. Stimulated cells were treated with ILK inhibitors (25 μM), and lysed 16 h later and a western blot analysis was performed to quantitate iNOS protein expression. […]
# Nitric oxide and Prostaglandin E2 are two pleiotropic mediators produced at inflammatory sites by the inducible enzymes iNOS and cyclooxygenase-2 (COX-2), respectively. […] Finally, we evaluated the in-vitro effects of compounds on production of MCP-1 chemokine by TNF-α stimulated HUVEC cells. […]
# HUVEC cells = assay: In vitro Matrigel morphogenesis (tube formation) assay of VEGF stimulated HUVEC cells; type: cell-based, human; details: 100 mM (so in the source)
# Protocol: In Vitro Angiogenesis. […] After 5 hours of incubation in a 5% CO2-humidified atmosphere at 37 °C, the three-dimensional organization of the cells was examined using an inverted photomicroscope. The cells were fixed with Crystal Violet (0.05% in 20% ethanol) and digitally photographed.
# To determine the anti-angiogenic properties of ILK inhibitors, an in vitro Matrigel morphogenesis assay was established. This assay evaluates the ability of endothelial cells to differentiate into capillary-like structures, a crucial step during neovascularization. HUVEC cells when stimulated with VEGF and seeded onto Matrigel rapidly attach to the matrix and begin to migrate and interact with the extracellular matrix proteins present in the Matrigel. […] These capillary-like structures can be assessed by histology (FIG. 2). Samples are cut on a cross section and subsequent viewed using an electron microscope. Typically, cylindrical formations with a lumen are observed. A distinct difference in the morphology of tube formation on Matrigel, compared to other in vitro angiogenesis assays is a reduction in the proliferation of endothelial cells. […] Using this model system, both inhibitors and stimulators of angiogenesis can be assessed prior to in vivo testing.
# The assay was established and reproducibility confirmed. SU5416, shown to inhibit angiogenesis in other assays, was also evaluated. […]
# CDC2 = CDC2 (Homo sapiens, UniProt P06493); assay: Protein kinase selectivity, CDC2; type: biochemical
# ERK1 = ERK1 (Homo sapiens, UniProt P27361); assay: Protein kinase selectivity, ERK1; type: biochemical
# SRC = SRC (Homo sapiens, UniProt P12931); assay: Protein kinase selectivity, SRC; type: biochemical
# CK2 = CK2 (Homo sapiens, UniProt P68400); assay: Protein kinase selectivity, CK2; type: biochemical
# GSK3β = GSK3β (Homo sapiens, UniProt P49841); assay: Protein kinase selectivity, GSK3β; type: biochemical
# GSK3β, sequence (P49841 whole entry, species assumed): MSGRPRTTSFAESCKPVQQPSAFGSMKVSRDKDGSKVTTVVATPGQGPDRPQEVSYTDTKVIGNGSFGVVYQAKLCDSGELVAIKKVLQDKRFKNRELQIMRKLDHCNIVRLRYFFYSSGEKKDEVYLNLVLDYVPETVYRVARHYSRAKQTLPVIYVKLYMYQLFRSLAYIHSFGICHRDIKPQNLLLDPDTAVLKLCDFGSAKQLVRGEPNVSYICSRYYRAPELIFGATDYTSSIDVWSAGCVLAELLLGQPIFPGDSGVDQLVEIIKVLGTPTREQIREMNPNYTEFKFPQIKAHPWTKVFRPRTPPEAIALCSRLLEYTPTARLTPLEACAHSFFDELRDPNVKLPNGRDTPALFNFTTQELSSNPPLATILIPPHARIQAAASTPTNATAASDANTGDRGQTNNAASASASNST
# ERK1, sequence (P27361 whole entry, species assumed): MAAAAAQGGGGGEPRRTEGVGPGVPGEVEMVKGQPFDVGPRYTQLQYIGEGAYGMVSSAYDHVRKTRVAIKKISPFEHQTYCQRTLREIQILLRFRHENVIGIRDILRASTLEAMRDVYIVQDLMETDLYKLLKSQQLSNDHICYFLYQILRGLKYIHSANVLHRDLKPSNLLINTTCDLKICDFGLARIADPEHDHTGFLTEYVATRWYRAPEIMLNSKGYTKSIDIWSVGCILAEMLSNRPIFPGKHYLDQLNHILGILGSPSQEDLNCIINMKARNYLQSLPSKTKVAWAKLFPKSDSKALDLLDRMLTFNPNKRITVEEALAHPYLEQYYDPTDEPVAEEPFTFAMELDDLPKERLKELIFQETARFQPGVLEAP
# CDC2, sequence (P06493 whole entry, species assumed): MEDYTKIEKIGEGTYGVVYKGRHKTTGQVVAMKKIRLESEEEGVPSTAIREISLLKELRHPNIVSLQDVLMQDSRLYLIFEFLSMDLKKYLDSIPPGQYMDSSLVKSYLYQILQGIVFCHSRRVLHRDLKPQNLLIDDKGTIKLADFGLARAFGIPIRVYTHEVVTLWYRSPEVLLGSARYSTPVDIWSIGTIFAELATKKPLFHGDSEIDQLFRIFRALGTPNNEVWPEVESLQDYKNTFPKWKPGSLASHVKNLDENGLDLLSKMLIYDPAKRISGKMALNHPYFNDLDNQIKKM
# CDC2, sequence (P14635 whole entry partner, species assumed): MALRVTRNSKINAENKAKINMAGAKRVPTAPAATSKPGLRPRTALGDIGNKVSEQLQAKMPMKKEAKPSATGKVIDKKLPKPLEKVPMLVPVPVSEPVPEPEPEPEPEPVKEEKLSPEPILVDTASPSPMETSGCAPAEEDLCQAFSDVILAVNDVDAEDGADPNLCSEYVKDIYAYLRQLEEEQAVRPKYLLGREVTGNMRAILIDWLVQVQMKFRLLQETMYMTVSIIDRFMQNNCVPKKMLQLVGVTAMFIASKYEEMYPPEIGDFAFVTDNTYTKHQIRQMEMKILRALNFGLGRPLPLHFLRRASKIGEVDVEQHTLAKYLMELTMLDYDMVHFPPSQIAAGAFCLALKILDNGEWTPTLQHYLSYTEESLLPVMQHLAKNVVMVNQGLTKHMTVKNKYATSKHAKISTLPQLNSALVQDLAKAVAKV
# SRC, sequence (P12931 whole entry, species assumed): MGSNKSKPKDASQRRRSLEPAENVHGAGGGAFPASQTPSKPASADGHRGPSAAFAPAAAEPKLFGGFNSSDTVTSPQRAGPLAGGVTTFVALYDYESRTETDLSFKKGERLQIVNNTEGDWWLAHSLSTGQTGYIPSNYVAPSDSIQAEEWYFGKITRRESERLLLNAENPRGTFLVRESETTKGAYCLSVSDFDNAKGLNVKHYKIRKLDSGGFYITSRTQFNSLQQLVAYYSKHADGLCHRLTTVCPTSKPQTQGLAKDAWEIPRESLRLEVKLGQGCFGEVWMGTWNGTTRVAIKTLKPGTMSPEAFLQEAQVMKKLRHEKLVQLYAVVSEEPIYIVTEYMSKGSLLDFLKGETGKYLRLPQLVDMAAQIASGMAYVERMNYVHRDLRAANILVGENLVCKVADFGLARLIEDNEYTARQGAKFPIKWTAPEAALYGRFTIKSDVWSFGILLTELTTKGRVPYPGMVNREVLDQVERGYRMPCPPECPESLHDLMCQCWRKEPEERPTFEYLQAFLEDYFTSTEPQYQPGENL
# CK2, sequence (P68400 whole entry): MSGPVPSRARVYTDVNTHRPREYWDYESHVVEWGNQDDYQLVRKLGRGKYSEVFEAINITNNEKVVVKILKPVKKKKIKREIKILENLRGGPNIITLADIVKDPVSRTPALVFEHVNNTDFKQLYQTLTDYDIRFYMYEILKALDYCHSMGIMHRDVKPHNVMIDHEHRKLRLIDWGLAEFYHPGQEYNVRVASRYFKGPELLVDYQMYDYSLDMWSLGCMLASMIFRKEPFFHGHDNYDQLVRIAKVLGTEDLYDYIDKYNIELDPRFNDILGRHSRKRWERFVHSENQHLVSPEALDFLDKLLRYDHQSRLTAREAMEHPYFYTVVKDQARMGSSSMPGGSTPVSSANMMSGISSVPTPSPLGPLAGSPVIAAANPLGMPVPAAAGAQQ
Structure (SMILES),Survival (%) [1] [%],COX-2 protein expression (in words) (COX-2),Effect on endothelial cell morphogenesis (in words) (HUVEC cells),Inhibition of CDC2 (in words) (CDC2),Inhibition of ERK1 (in words) (ERK1),Inhibition of SRC (in words) (SRC),Inhibition of CK2 (in words) (CK2),Inhibition of GSK3β (in words) (GSK3β)
N=C(N)N/N=C/c1ccc(Cl)cc1Cl [KP-16735],49,significant decrease of COX-2 protein expression,,,,,,
"Oc1ccc2c(c1)CC1NCCc3cc(O)c(O)c-2c31 (stereo not shown) [KP-21849, 5,6,6a,7-Tetrahydro-4H-dibenzo[de,g]quinoline-1,2,9-triol]",44,significant decrease of COX-2 protein expression,profound effect on HUVEC cells,does not significantly inhibit,does not significantly inhibit,does not significantly inhibit,does not significantly inhibit,does not significantly inhibit
